Values of other authors in patent publication US20260021069A1, “ADVANTAGEOUS FLUOROB[…] THE TREATMENT OF MENTAL DISORDERS OR ENHANCEMENT” (TACTOGEN INC, priority 2023, published 2026).

How the values were obtained:
DAT and SERT [1] = conditions: uptake inhibition IC50 based; literature value
DAT and SERT [2] = conditions: release based; Rothman et al. 2012
[3] = after 75 or 125 mg MDMA; standard deviation of 1.3 hours; Vizeli & Liechti 2017
DAT and NET = conditions: Rothman et al. 2001

Structure (SMILES) | DAT/SERT ratio (1/IC50 at DAT divided by 1/IC50 at SERT) (DAT and SERT [1]) | DAT/SERT EC50 ratio (DAT and SERT [2]) | duration of acute therapeutic effects [3] [h] | DAT/NET EC50 ratio (DAT and NET)
CCNC(C)Cc1ccc2c(c1)OCO2 (stereo not drawn) [MDEA, 3,4-methylenedioxy-N-ethylamphetamine] | 3.2 | 0.76 |  | 
CNC(C)Cc1ccc2c(c1)OCO2 (stereo not drawn) [MDMA] | 0.08 |  | 4.2 | 
C[C@H](N)Cc1ccccc1 [d-amphetamine] |  |  |  | 0.9
CN[C@@H](C)Cc1ccccc1 [d-methamphetamine] |  |  |  | 0.5
